In data set [1] the test system is miscellaneous protein derived from the patient's abdominal cavity. Nature of the data set: Example 4: specificity, SDS-PAGE of miscellaneous proteins in homogenized patient mucins. In kind it is biochemical, human. The conditions noted are these: 2-10 ug protease, 100 μL homogenized mucins, 200 uL, 6 h. The protocol: Untreated mucins derived from clinical patients were briefly cleared to remove cellular tissue. 0.20 g of the above-mentioned mucins was accurately weighed and placed in 1 mL of PBS solution, 3-4 magnetic beads with a diameter of 1 mm were added, and then a resulting mixture was frozen and shaken at −30° C. for homogenization, so as to destroy the gel-like morphology of mucins, and release the miscellaneous protein from patients with mixed gel-like mucins. 100 μL of the homogenized mucins solution was added with 2-10 ug of protease (bromelain or serine protease EatA), respectively, and the reaction was performed in a 200 uL reaction system. After 6 h of reaction, samples were respectively taken for SDS-PAGE detection, and the total protein after fragmentation, which was the patient-derived miscellaneous protein in the abdominal cavity/abdominal mucins of the patient, was analyzed.

Data set [2] relates to human patient-derived gel-like mucins. Description: Example 5: in vivo degradation of gel-like mucins embedded in mouse abdominal cavity. Details: species or system C57 male mice. The conditions noted are these: 80 ug injected 24 h after embedding 0.30 g mucins, sacrificed after 48 h. The procedure:
The experiment included twenty C57 male mice aged 6-8 weeks. Five groups were set up in the experiment, including an experimental group (mucus+EatA, 5 mice), a control group (mucus+PBS, 5 mice), a bromelain group (mucus+bromelain, 5 mice), a negative sham operation group (minimal invasive open operation performed without adding mucins and enzyme, 3 mice), and a reference group (minimal invasive open operation performed with adding EatA protease, 2 mice). […] After 48 h, the mice were sacrificed, laparotomy was performed (results of abdominal examination after laparotomy were shown in FIG. 9) and the whole amount of gel-like mucins in the mice were removed, weighed using the method described in Example 2, counted and compared with the final amount of gel-like mucins remaining in three groups (experimental group (mucus+EatA), control group without enzyme (mucus+PBS) and bromelain group (mucus+bromelain)) to which gel-like mucins was added as a substrate, and results were shown in FIG. 8.

Data set [3] relates to gel-like mucins. Nature of the data set: Example 2: mass loss of gel-like mucins, EatA versus bromelain. In kind it is biochemical, human. The conditions noted are these: 0.10 g mucins, 500 uL PBS, 37° C., 6 h. An excerpt: (§1) Since mucins of different origins and mucins associated with the mucus-related disease have different expression patterns and post-translational modifications, different mucins of clinical pathological origin and mixtures thereof are used in the present application. Preferably, mucins of clinical peritoneal pseudomyxoma origin are used. In the present application, firstly, gel-like mucins from the abdominal cavity of patients with clinical peritoneal pseudomyxoma are collected, after protein precipitation with 30% to 100% ammonium sulfate, cells and tissue fragments, adipose tissue that possibly doped in the collection process of mucins are selected and removed, and then dialyzed and filtered through a 100 KDa dialysis bag. Through the use of sulfate detection test paper, the sulfate concentration in the dialysate and the inner side of the dialysis bag is confirmed. When the sulfate concentration is less than 200 mg/L, the dialysis is terminated and gel-like mucins can be seen. This sample is collected and used as the substrate for in vitro tests to examine the degradation ability of serine protease EatA on mucins. Some examples used mucins removed from the abdominal cavity of clinical patients without purification. […]

The subject of data set [4] is mucins after mucus formation. The conditions noted are these: background statement; cited from earlier work.
The target of data set [5] is gel-like mucins from the abdominal cavity of patients with clinical peritoneal pseudomyxoma.
Data set [6] concerns the target mucus from mucinous appendiceal adenocarcinoma (clinical source).
Data set [7] deals with mucus from mucinous ovarian cancer (clinical source).
In data set [8] the test system is mucinous appendiceal adenocarcinoma (MAA) mucus. Nature of the data set: Example 6: viscosity and appearance of mucinous appendiceal adenocarcinoma mucus after incubation. It counts as biochemical, human. To be noted: 50 μg enzyme, 20 h. The protocol: (§2) This example carried out a degradation experiment on mucus from mucinous ovarian cancer and mucinous appendiceal adenocarcinoma using the serine protease EatA. 0.50 mL of the above-mentioned two new types of mucinous carcinoma mucus from clinical sources were weighed directly into test tubes, 50 μg of EatA serine protease dissolved in 0.25 mL of PBS buffer was added and then incubated in a total 750 uL reaction system at 37° C., 600 rpm for 20 h. For each type of mucinous carcinoma mucus sample, a control group was set up with only the addition of an equal volume of PBS, for a total of four experiments, each set up with three replicates. The viscosity of the incubated experimental samples was measured under an Anton Paar rheometer, probe model pp25, sample spacing 0.45 mm. After each sample was subjected to pre-shearing at a shearing frequency of 5 rad/s for 20 s, a total of 36 sample point data was obtained for each group of experiments by reading a total of 12 data at a shearing frequency of 10 rad/s every 5 s period for 60 s.

In data set [9] the test system is gel-like mucins from the abdominal cavity of patients with clinical peritoneal pseudomyxoma. Nature of the data set: Example 1: degradation of gel-like mucins by EatA, visual/pipette observation. In kind it is biochemical, human. To be noted: about 80 μg enzyme, 0.30 g mucins, 500 ul, 37° C., 3 h.
Source text: as §1

Data set [10] relates to mucinous ovarian cancer (MOC) mucus. Nature of the data set: Example 6: viscosity of mucinous ovarian cancer mucus after incubation (rheometer). The conditions noted are these: 50 μg enzyme, 0.50 mL mucus, 750 uL, 37° C., 600 rpm, 20 h; control about 2000 mPa s. It counts as biochemical, human. The procedure:
as §2

Data set [11] deals with gel-like mucins. Nature of the data set: Example 3: temperature, pH and time dependence of mucin degradation. In kind it is biochemical, human. An excerpt:
Since mucins of different origins and mucins associated with the mucus-related disease have different expression patterns and post-translational modifications, different mucins of clinical pathological origin and mixtures thereof are used in the present application. Preferably, mucins of clinical peritoneal pseudomyxoma origin are used. In the present application, firstly, gel-like mucins from the abdominal cavity of patients with clinical peritoneal pseudomyxoma are collected, after protein precipitation with 30% to 100% ammonium sulfate, cells and tissue fragments, adipose tissue that possibly doped in the collection process of mucins are selected and removed, and then dialyzed and filtered through a 100 KDa dialysis bag. Through the use of sulfate detection test paper, the sulfate concentration in the dialysate and the inner side of the dialysis bag is confirmed. When the sulfate concentration is less than 200 mg/L, the dialysis is terminated and gel-like mucins can be seen. This sample is collected and used as the substrate for in vitro tests to examine the degradation ability of serine protease EatA on mucins. Some examples used mucins removed from the abdominal cavity of clinical patients without purification.
During the experiment, 0.10 g of gel-like mucins was accurately weighed for each single reaction, 20 μg of aminoprotease EatA was added, the reaction was performed in 500 uL of solution system, and the weighing method for the remaining gel-like mucins was the same as that in Example 2. The control group was performed under the same conditions except that the serine protease EatA was not added, and three reactions were set in each group as statistical replicates. Due to the hydrating nature of gel-like mucins, the gel-like mucins absorbed water and swelled when in solution, resulting in a certain weight increase in the control group when finally weighed.
Among them, the experiment on temperature gradient was conducted in normal saline with pH=7.1, and results were shown in FIG. 4; in the pH experiment, the reaction system used was a solution system with different pH values based on 0.9% normal saline, and the reaction temperature was 37° C., and results are shown in FIG. 5; the reaction time for both the above-mentioned experiments was 6 h.
In the experiment regarding the degradation time, based on the temperature curve and pH curve, the experiment was carried out in PBS buffer with pH=7.2-7.4 at 37° C.

The subject of data set [12] is mucus (sputum), mucous colon cancer and the like of patients with chronic obstructive pulmonary pneumonia. Nature of the data set: Applicant's related studies: degradation of COPD sputum and mucous colon cancer mucus. To be noted: relevant study results of the applicant. It counts as biochemical, human.
The nature of data set [13]: Example 5: tolerability in mice after intraperitoneal injection. In kind it is in vivo, C57 male mice. To be noted: mice injected with enzyme.
Data set [14] concerns gelatin, lactoferrin and CD43, BSA and BSM. The conditions noted are these: previous studies; cited from earlier work.

For bromelain [reference compound], the “degradation of patient-derived miscellaneous proteins (SDS-PAGE)” value in data set [1] was “the miscellaneous protein showed degradation”. Further, the “amount of gel-like mucins remaining” value in [2] is given as “more than 0.30 g”. Further, in [3] (increasing enzyme concentration), the “mass loss of gel-like mucins (in words)” value is “negative”.

In the case of elastase, the “mucin degradation after mucus formation” value in data set [4] is listed as “inefficient”.

Turning to pancreatin, the “mucin degradation after mucus formation” value in data set [4] is reported as “inefficient”.

Regarding “serine protease EatA (serine protease EatA-EatAp with only the passenger domain) (enzyme)”, the mass loss of gel-like mucins in data set [5] worked out at 90.3%. In addition, the viscosity of mucus (rheometer) in [6] is 7 mPa s; in [7], 670 mPa s.

In the case of “serine protease EatA: autotransporter serine protease from enterotoxigenic Escherichia coli H10407; passenger domain SEQ ID NO 2, full length SEQ ID NO 1”, the “viscosity of mucus after incubation” value in data set [8] (0.50 mL mucus, 750 uL, 37° C., 600 rpm, control about 1200 mPa s) is listed as “about 7 mPa s”; in data set [10], “about 670 mPa s”. The “appearance of mucus sample solution after incubation” value in data set [8] (after standing) is listed as “becomes uniform”. For the same substance, the “degradation of gel-like mucins (observation)” value in data set [9] is reported as “obvious degradation of gel-like mucins”. For the same substance, the “degradation of patient-derived miscellaneous proteins (SDS-PAGE)” value in data set [1] is given as “did not degrade these proteins”. Besides, the “pH of maximum degradation efficiency” value in data set [11] (20 μg enzyme, 0.10 g mucins, 0.9% normal saline based, 37° C., 6 h) is reported as ~8. For the same substance, the “mass loss of gel-like mucins” value in [11] (20 μg enzyme, 0.10 g mucins, PBS pH=7.2-7.4, 37° C., 10.5 h) was 80%; in data set [3] (40 μg enzyme, based on initial mass 0.1 g) it was 90.33%. In data set [11] (20 μg enzyme, 0.10 g mucins, normal saline pH=7.1, 6 h), the “temperature of maximum enzyme activity” value is 34-37 °C. In data set [11] (degradation of gel-like mucins), the “optimal working environment: pH” value is recorded as 7-8. Besides, the “optimal working environment: reaction temperature” value in data set [11] (degradation of gel-like mucins) was 34-37 °C. For the same substance, the “degradation efficiency of gel-like mucins in vivo” value in [2] (based on initial 0.30 g) was determined as 78%. The “degradation effect on mucus” value in data set [12] was “certain degradation effect”. Further, the “survival from the beginning of the experiment” value in data set [13] is recorded as “more than 100 days”. Further, the “adverse reactions, behavior and body weight” value in data set [13] (compared with non-injected group) is “without adverse reactions”. The “degradation of common human glycoproteins and non-human proteins” value in data set [14] is reported as “did not degrade”.

Values taken from patent publication US20250197837A1, “SERINE PROTEASE FOR SELECTIVELY DEGRADING MUCINS AND USE THEREOF” (priority 2022, published 2025).
